Data: patent US6465476B1, “Immuno-modulator exhibiting antimicrobial and anti-mycrobacterial activities, method for producing the same and pharmaceutical preparation” (priority 1997, dated 2002)
Where two headings read alike, the source gives them in different places.

Experiments:
macrophages = experiment: Phagocytic activity of macrophages (clearance from blood); format: in vivo, mice; details: 500 μg per mouse per os
Description: The influence of the preparations in question on the phagocytic activity of macrophages was studid from clearence of the carcass in blood taken from the retroorbital sinus of mice that received the preparations per os. The results were estimated on the phagocytic index α (see Table 4).

[1] = system: agent of leprosy (mycobacteria of leprosy); details: leprosy patients
[2] = system: tuberculosis mycobacteria H37Rv (USSR H37Rv); format: in vivo, tuberculosis mycobacteria; mice of the CBA line; details: USSR H37Rv
[3] = system: antibody-forming cells (AFC) in the spleens; experiment: Antibody-forming cells in the spleen, immunodeficiency caused by irradiation (Jeme-Nordin's procedure); format: in vivo, mice F1 (CBA×C57BL/6); details: irradiated mice 4 Gy
Procedure: Determination of immunotropic activity of isophonum was carried out. Immunotropic activity of isophonum was determined on a model of immunodeficiency caused by irradiation. To create an immunodeficient state the mice F1 (CBA×C57BL/6) were irradiated with gamma-rays on a radioterapeutic apparatus in a dose of 4 Gy (Gy is the irradiation unit gray) at an irradiation dose power of 0.55 Gr/min. The number of antibody-forming cells (AFC) in the spleens was calculated by Jeme-Nordin's procedure. Isophonum and diuciphonum were introduced per os over a wide range of doses. The investigation results are represented in Table 1.

Tubazide-resistent H37Rv = format: in vivo, tuberculosis mycobacteria; mice of the CBA line; details: Tubazide-resistent H37Rv
[4] = system: human mononucleator cells (T-lymphocytes); experiment: Proliferation of T-lymphocytes in cell culture in vitro (3H-thymidine); format: cell-based
Procedure: The influence of the test compound on the proliferation of T-lymphocytes was studied on a model in vitro. To this end human mononucleator cells were preliminarily incubated during three hours in the presence of different concentrations of each test substance. Each test substance was studied over a wide range of its concentrations, that is from […]. As a negative control there was added a physiological 0.9 percent solution of NaCl. The results of the influence of novel compoubds on the intensity of proliferation of human lymphocytes in the cell culture in vitro are represented in Table 3.

[5] = in vivo; cited from earlier work
[6] = system: Kyp-4 strain of leprosy mycobacteria; experiment: Antileprous activity in mice infected by Shepard's procedure; format: in vivo, leprosy mycobacteria; male mice of the CBA line; details: after six months; isophonum dose 2.5 mg/kg
Description: Antileprous activity of isophonum as compared with that of diuciphonum was studied on male mice of the CBA line infected with the laboratory Kyp-4 strain of leprosy mycobacteria taken in an amount of 5000 and introduced intraplantedly by Shepard's procedure. The experiment lasted six months from the 7th of February to the […] 1996. Observed were 5 groups of mice with 15 mice in each group. All the animals were kept under the same conditions of the vivarium on a standard diat.
The first group (controls): during six months of the experiment the mice received 0.5 ml of a starch suspension through a probe five times a week. After six months the animals were killed through a cervical dislocation of backbone, the organs were subjected to a bacterioscopic investigation, no pathologic deviations characteristic of any of the groups were found. The bacteriscopic investigation of the infected site was carried out by grinding the mouse foot in 2 ml of 0.1 percent solution of albumin, making a smear from 0.01 ml of the suspenstion and painting it by Ziel-Nielson's procedure and counting the number of leprosy micobacteria in 60 fields of vision to determine the number of micobacteria per mouse in each group.

[7] = system: antibody-forming cells (AFC) in the spleen; experiment: Humoral immunity, localized-in-gel hemolysis, AFC accumulation in spleen of immunized mice; format: in vivo, hybrid mice F1 (CBA/C57BL6)
Procedure: The influence on humoral immunity was studied using the method of localized-in-gel hemolysis. […] On the 5th day the number of antibody-forming cells (AFC) in the spleen of the mice was calculated and the immune response stimulation index was determined as the ratio of AFC number in the test group to the AFC number in the control group. The respective data are represented in Table 2.

[8] = due to impurities contained therein; cited from earlier work
[9] = after three months, 0.6 g daily

Cc1[nH]c(=O)[nH]c(=O)c1S(=O)(=O)Nc1ccc(S(=O)(=O)c2ccc(NS(=O)(=O)c3c(C)[nH]c(=O)[nH]c3=O)cc2)cc1 [Diuciphonum, reference compound]
Phagocytic index (macrophages): 5.18 ± 0.04
Phagocytic index, percent of controls (macrophages; controls 100%): (123%)
B-lymphocytes ([1]; after one month, 0.6 g daily): 8.4 ± 0.6
T-helpers ([1]; after one month, 0.6 g daily): 32.4 ± 2.0
T-lymphocytes ([1]; after one month, 0.6 g daily): 50.5 ± 2.1
T-suppressors ([1]; after one month, 0.6 g daily): 20.1 ± 0.6
Th/Ts (immunoregulatory index) ([1]; after one month, 0.6 g daily): 1.6 ± 0.1
B-lymphocytes [1, 9]: 9.0 ± 0.3
T-helpers [1, 9]: 36.9 ± 2.3
T-lymphocytes [1, 9]: 55.4 ± 2.4
T-suppressors [1, 9]: 20.0 ± 0.5
Th/Ts (immunoregulatory index) [1, 9]: 1.8 ± 0.4
B-lymphocytes ([1]; before treatment): 6.3 ± 0.3
T-helpers ([1]; before treatment): 16.8 ± 0.2
T-lymphocytes ([1]; before treatment): 30.4 ± 0.4
T-suppressors ([1]; before treatment): 17.0 ± 0.4
Th/Ts (immunoregulatory index) ([1]; before treatment): 1.0
Damage index ([2]; dose not given): 2.31 ± 0.24
Life duration ([2]; dose not given): 25.1 ± 2.8
Weight of the lung ([2]; dose not given): 580.4 ± 50.7
AFC-number in the spleen ([3]; 10 μg per mouse per os): 768 ± 123
Immune response stimulation index ([3]; 10 μg per mouse per os): 2.5 ± 0.2
AFC-number in the spleen ([3]; 100 μg per mouse per os): 870 ± 119
Immune response stimulation index ([3]; 100 μg per mouse per os): 2.9 ± 0.12
AFC-number in the spleen ([3]; 1000 μg per mouse per os): 647 ± 64
Immune response stimulation index ([3]; 1000 μg per mouse per os): 2.1 ± 0.2
Damage index (Tubazide-resistent H37Rv; dose not given): 2.27 ± 0.19
Life duration (Tubazide-resistent H37Rv; dose not given): 24.9 ± 2.4
Weight of the lung (Tubazide-resistent H37Rv; dose not given): 602.7 ± 70.2
Intensity of involvement of 3H-thymidine in DNA of cultivated cells, PHA-activated ([4]; 0.01 μg/ml): 22811 impulse per minute
Intensity of involvement of 3H-thymidine in DNA of cultivated cells, Spontaneous ([4]; 0.01 μg/ml): 860 impulse per minute
Intensity of involvement of 3H-thymidine in DNA of cultivated cells, PHA-activated ([4]; 0.03 μg/ml): 24214 impulse per minute
Intensity of involvement of 3H-thymidine in DNA of cultivated cells, Spontaneous ([4]; 0.03 μg/ml): 850 impulse per minute
Intensity of involvement of 3H-thymidine in DNA of cultivated cells, PHA-activated ([4]; 0.1 μg/ml): 28946 impulse per minute
Intensity of involvement of 3H-thymidine in DNA of cultivated cells, Spontaneous ([4]; 0.1 μg/ml): 804 impulse per minute
Intensity of involvement of 3H-thymidine in DNA of cultivated cells, PHA-activated ([4]; 1 μg/ml): 26400 impulse per minute
Intensity of involvement of 3H-thymidine in DNA of cultivated cells, Spontaneous ([4]; 1 μg/ml): 799 impulse per minute
Intensity of involvement of 3H-thymidine in DNA of cultivated cells, PHA-activated ([4]; 5 μg/ml): 20150 impulse per minute
Intensity of involvement of 3H-thymidine in DNA of cultivated cells, Spontaneous ([4]; 5 μg/ml): 800 impulse per minute
toxicity [5]: 2600 mg/kg
Number of mycobacteria in the foot × 10^6 [6]: 0.048 ± 0.007 × 10^6
Percentage of infected animals [6]: 60%
AFC-number in the spleen ([7]; 500 μg per mouse per os in starch suspension, 5th day after immunization): 2250 ± 125
Immune response stimulation index ([7]; 500 μg per mouse per os, ratio of AFC test group to control group): 4.5

Cc1[nH]c(=O)[nH]c(=O)c1S(=O)(=O)NNC(=O)c1ccncc1 [N-(6-methyl-2,4-dioxo-1,2,3,4-tetrahydro-5-pyrimidinsulfon)-N′-isonicotinoylhydrazide]
behaviour on prolonged storage [8]: does not withstand prolonged storage conditions

NNC(=O)c1ccncc1 [Tubazide]
Damage index ([2]; 100 μg per mouse): 2.16 ± 0.17
Weight of the lung ([2]; 100 μg per mouse): 586.4 ± 47.2
Damage index ([2]; 200 μg per mouse): 2.11 ± 0.18
Life duration ([2]; 200 μg per mouse): 32.2 ± 4.4
Weight of the lung ([2]; 200 μg per mouse): 550.6 ± 46.4
Damage index (Tubazide-resistent H37Rv; 100 μg per mouse): 2.44 ± 0.24
Life duration (Tubazide-resistent H37Rv; 100 μg per mouse): 23.7 ± 2.4
Weight of the lung (Tubazide-resistent H37Rv; 100 μg per mouse): 628.7 ± 48.4
Damage index (Tubazide-resistent H37Rv; 200 μg per mouse): 2.01 ± 0.18
Life duration (Tubazide-resistent H37Rv; 200 μg per mouse): 30.2 ± 2.8
Weight of the lung (Tubazide-resistent H37Rv; 200 μg per mouse): 580.4 ± 46.4
toxicity [5]: 150 mg/kg
